From publication PMC10081574, “Evaluation of Antiviral Activity of Gemcitabine Derivatives against Influenza Virus and Severe Acute Respiratory Syndrome Coronavirus 2” (ACS Infectious Diseases, 2023)
Entries after “also recorded” stand apart in the source; their conditions may differ. Like-named read-outs stand apart in the source and are kept apart here.

What was measured:
B/Lee/40 = assay: CPE reduction antiviral assay in Lee-infected MDCK cells (MTT); type: cell-based, influenza B virus; details: MDCK, viability of infected cells to 50%
[1] = tested on: influenza A and B viruses; assay: CPE reduction antiviral assay, values summarised over influenza strains PR8, HK and Lee; type: cell-based, influenza virus
A/Hong Kong/8/68 (H3N2) [2] = details: ratio of CC50 to EC50
[3] = tested on: Caco-2 human colorectal adenocarcinoma cells; set-up: method as in PMID 35310327; details: 0.1 μM to 1 mM, 3 day incubation; cited from earlier work
[4] = clinical study; cited from earlier work
[5] = tested on: A/Puerto Rico/8/34 (H1N1); assay: microbe, parasite or virus in culture; details: Influenza A virus, 72 h
A/Hong Kong/8/68 (H3N2) [6] = assay: microbe, parasite or virus in culture; details: Influenza A virus, H3N2, MDCK, 72 h
[7] = Cytotoxicity to mock-infected MDCK cells (MTT); details: dog, mock-infected MDCK cells
MDCK cells = assay: Cytotoxicity to mock-infected MDCK cells (MTT); details: for CC10: mock-infected MDCK cells, day 3, MTT, concentration inhibiting cell viability by 10%

Q: What does the source list for `Nc1ccn([C@@H]2O[C@H](CO)[C@@H](O)C2(F)F)c(=O)n1` [Gemcitabine, 2′,2′-difluoro-2′-deoxycytidine]?
A: EC50 (B/Lee/40; Influenza B virus, 72 h, read-out: EC50 Lee, MDCK, MOI 0.001, day 3): 700 nM; EC50 (B/Lee/40; MOI 0.001, day 3, read-out: EC50 Lee): 400 nM; EC50 ([1]; Influenza A virus, span over PR8, HK and Lee, MDCK, read-out: EC50 against influenza viruses): 300 to 700 nM; recovery of viability of virus-infected cells with 90% cutoff ([1]; MDCK, day 3): failed to reach cell viability above 90%; also recorded: failed to recover over 90% cell viability; SI50 against influenza viruses ([1]; over PR8, HK and Lee, CC50/EC50): above 464.8; SI50 HK (A/Hong Kong/8/68 (H3N2) [2]): > 883.5; suppression of Caco-2 cancer cell proliferation [3]: 40–50%; toxicity after oral administration [4]: liver necrosis-mediated lethal hepatotoxicity; EC50 ([5]; H1N1 / PR8, MDCK, read-out: EC50 PR8): 600 nM; viability at 10 µM ([5]; H1N1|PR8, MDCK, read-out: viability of PR8-infected cells in library screening): > 50%; EC50 (A/Hong Kong/8/68 (H3N2) [6]; read-out: EC50 HK): 300 nM; viability at 10 µM (A/Hong Kong/8/68 (H3N2) [6]; read-out: viability of HK-infected cells in library screening): > 50%; CC50 at 3 days [7]: > 300000 nM; cytotoxicity at a higher concentration (MDCK cells; 100 μM, MDCK, data not shown): severe cytotoxicity; concentrations at which MDCK cell viability gradually decreased (MDCK cells; incubation of MDCK cells): above 3.3 μM; CC10 (MDCK cells): 5000 ± 300 nM; CC10 (MDCK cells; listed as gemcitabine): 5000 nM
